What was measured:
factor Xa = factor Xa (Homo sapiens, UniProt P00742); assay: inhibition of factor Xa; format: biochemical
Source text: The inhibition of factor Xa by the compounds according to the invention and the measurement of the anticoagulant and antithrombotic activity can be determined by conventional in-vitro or in-vivo methods. A suitable method is described, for example, by J. Hauptmann et al. in Thrombosis and Haemostasis 1990, 63, 220-223.
The inhibition of factor Xa can be measured, for example, by the method of T. Hara et al. in Thromb. Haemostas. 1994, 71, 314-319.

factor VIIa = target: T1, factor VIIa (Homo sapiens, UniProt P08709); assay: inhibition of factor VIIa; format: biochemical
T1 sequence (P08709 213-466 limits assumed): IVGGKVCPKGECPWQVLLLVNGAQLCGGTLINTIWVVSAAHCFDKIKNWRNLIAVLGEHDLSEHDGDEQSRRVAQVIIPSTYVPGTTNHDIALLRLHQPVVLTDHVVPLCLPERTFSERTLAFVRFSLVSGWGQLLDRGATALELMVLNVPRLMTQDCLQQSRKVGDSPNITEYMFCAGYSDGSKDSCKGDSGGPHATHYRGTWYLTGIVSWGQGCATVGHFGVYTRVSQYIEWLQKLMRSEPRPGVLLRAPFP
T1 sequence (P08709 61-212 partner limits assumed): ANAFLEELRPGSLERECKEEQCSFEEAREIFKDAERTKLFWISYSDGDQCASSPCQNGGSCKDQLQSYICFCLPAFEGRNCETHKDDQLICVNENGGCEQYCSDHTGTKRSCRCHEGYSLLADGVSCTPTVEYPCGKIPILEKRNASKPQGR
Source text: The inhibition of factor VIIa by the compounds according to the invention and the measurement of the anticoagulant and antithrombotic activity can be determined by conventional in-vitro or in-vivo methods. A conventional method for the measurement of the inhibition of factor VIIa is described, for example, by H. F. Ronning et al. in Thrombosis Research 1996, 84, 73-81.

factor Xa, sequence (P00742 235-488 limits assumed): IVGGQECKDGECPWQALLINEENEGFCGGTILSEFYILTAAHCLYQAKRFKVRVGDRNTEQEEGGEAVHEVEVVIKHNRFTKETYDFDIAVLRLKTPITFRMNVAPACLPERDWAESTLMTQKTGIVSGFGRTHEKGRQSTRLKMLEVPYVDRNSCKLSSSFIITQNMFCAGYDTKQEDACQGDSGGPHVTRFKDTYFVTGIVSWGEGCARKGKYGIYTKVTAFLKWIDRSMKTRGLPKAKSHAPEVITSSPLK
factor Xa, sequence (P00742 41-179 partner limits assumed): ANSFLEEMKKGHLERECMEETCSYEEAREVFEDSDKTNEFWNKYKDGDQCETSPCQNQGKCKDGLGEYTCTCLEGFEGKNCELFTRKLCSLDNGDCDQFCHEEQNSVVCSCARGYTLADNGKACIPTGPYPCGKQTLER

Structure (SMILES) | IC50 (factor Xa) [nM] | IC50 (factor VIIa) [nM]
CS(=O)(=O)c1ccccc1-c1ccc(NC(=O)C(Cc2cnc[nH]2)NC(=O)Nc2ccccc2)cc1 (centres unmarked) [2-(3-phenylureido)-N-(2′-methylsulfonylbiphenyl-4-yl)-3-(3H-imidazol-4-yl)propionamide] | 2000 | 2000
CS(=O)(=O)c1ccccc1-c1ccc(NC(=O)C(Cc2cccs2)NC(=O)Nc2ccccc2)cc1 (centres unmarked) [2-(3-phenylureido)-N-(2′-methylsulfonylbiphenyl-4-yl)-3-(thiophen-2-yl)-propionamide] | 1200 | 750
CSCCC(NC(=O)Nc1ccccc1)C(=O)Nc1ccc(-c2ccccc2S(C)(=O)=O)cc1 (centres unmarked) [2-(3-phenylureido)-N-(2′-methylsulfonylbiphenyl-4-yl)-4-methylsulfanylbutyramide] | 2300 | 1800
CCCC(NC(=O)Nc1ccc(Cl)cc1)C(=O)NCC1CCN(c2ccncc2)CC1 (centres unmarked) [2-[3-(4-chlorophenyl)ureido]-N-[1-(pyridin-4-yl)piperidin-4-ylmethyl]-valeramide] | 580 | –
CCCC[C@@H](NC(=O)Nc1ccccc1)C(=O)Nc1ccc(-c2ccccc2S(C)(=O)=O)cc1 [(R)-2-(3-phenylureido)-N-(2′-methylsulfonylbiphenyl-4-yl)hexanoamide] | 3000 | 170
CCC[C@@H](NC(=O)Nc1ccccc1)C(=O)Nc1ccc(-c2ccccc2S(C)(=O)=O)cc1 [(R)-2-(3-phenylureido)-N-(2′-methylsulfonylbiphenyl-4-yl)pentanoamide] | 2000 | 930
O=C(Nc1ccc(Cl)cc1)N[C@@H](C(=O)NCC1CCN(c2ccncc2)CC1)c1ccccc1 [(R)-2-[3-(4-chlorophenyl)ureido]-N-[1-(pyridin-4-yl)piperidin-4-ylmethyl]-2-phenylacetamide] | 55 | –
CC(C)C[C@@H](NC(=O)Nc1ccc(Cl)cc1)C(=O)NCC1CCN(c2ccncc2)CC1 [(R)-2-[3-(4-chlorophenyl)ureido]-N-[1-(pyridin-4-yl)piperidin-4-ylmethyl]-4-methylvaleramide] | 410 | –

Further molecules by falling IC50 (factor Xa), results first:

IC50 (factor Xa) [nM] | IC50 (factor VIIa) [nM] | Structure (SMILES)
3800 | 2700 | CCC[C@H](NC(=O)Nc1ccccn1)C(=O)Nc1ccc(-c2ccccc2S(C)(=O)=O)cc1 [(S)-2-(3-pyridin-2-ylureido)-N-(2′-methylsulfonylbiphenyl-4-yl)-pentanoamide]
2300 | 2000 | CS(=O)(=O)c1ccccc1-c1ccc(NC(=O)C(NC(=O)Nc2ccccc2)c2ccccc2)cc1 (centres unmarked) [2-(3-phenylureido)-N-(2′-methylsulfonylbiphenyl-4-yl)-2-phenyl-acetamide]
86 | 65 | CS(=O)(=O)c1ccccc1-c1ccc(NC(=O)[C@@H](Cc2ccccc2)NC(=O)Nc2ccc(Cl)cc2)cc1 [(R)-2-[3-(4-chlorophenyl)ureido]-N-(2′-methylsulfonylbiphenyl-4-yl)-3-phenylpropionamide]
71 | – | O=C(Nc1ccc(Cl)cc1)OC(C(=O)NCC1CCN(c2ccncc2)CC1)c1ccccc1 (centres unmarked) [2-[N-(4-chlorophenyl)-carbamoyloxy]-N-[1-(pyridin-4-yl)piperidin-4-ylmethyl]-2-phenylacetamide]
